Assay results as given in patent US20210292340A1, “CELL NECROSIS INHIBITOR, PREPARATION METHOD THEREFOR AND USE THEREOF” (SHANGHAI INSTITUTE OF ORGANIC CHEMISTRY, CHINESE ACADEMY OF …, priority 2018, published 2021).

These molecules were tested on Jurkat (FADD−/−) cells (assay: Inhibition of TNF-induced programmed Jurkat (FADD−/−) cell necrosis (Cell Titer-Glo)). Conditions: Homo sapiens, Jurkat, 20 h, TNF 10 ng/mL, intracellular ATP level, read-out: Cellular IC50 (M) Jurkat (FADD−/−).
Type: cell-based, human
Protocol: Two replicate wells were set for each concentration of each compound.
Jurkat (FADD^−/−) cells (human-derived peripheral blood leukemia T cell line, with FADD gene knocked out) were cultured in vitro. After growing to logarithmic growth phase, the cells were harvested, and centrifuged at 1000 rpm for 5 min. The supernatant was discarded, and the cells were resuspended in fresh medium and adjusted to a cell density of 5×10^5/mL. The cell suspension was added to the culture plate containing the drug (40 μL per well). In the treatment groups, 10 μL of TNF (tumor necrosis factor, final concentration 10 ng/mL) diluted with the cell culture medium was added to each well, and incubated for 20 h in a cell incubator (37° C., 5% CO2). Subsequently, 50 μL of Cell Titer-Glo solution was added to each well and incubated at room temperature for 10 min. Then, the luminescence was detected on BioTek plate reader to measure the intracellular ATP level. The effect of the test compounds in inhibiting TNF-induced cell necrosis was calculated from the full-activity well and background well (with the untreated DMSO control well as 100% cell viability), and the half inhibitory concentration (IC50) of the compound was calculated by Graphpad Prism statistical software.

SMILES | IC50
CN1C(=O)[C@@H](NC(=O)c2n[nH]c(Cc3c(F)cccc3F)n2)COc2cc3ncoc3cc21 [RIP1-183] | 6.15e-09 M
CN1C(=O)[C@@H](NC(=O)c2ncn(Cc3ccccc3)n2)CSc2ccc3ncccc3c21 [RIP1-093] | 1.15e-09 M
CN1C(=O)[C@@H](NC(=O)c2cn(Cc3ccccc3)nn2)COc2cc3nccnc3cc21 [RIP1-130] | 5.43e-08 M
COc1ncnc2cc3c(cc12)N(C)C(=O)[C@@H](NC(=O)c1n[nH]c(Cc2ccccc2F)n1)CO3 [RIP1-160] | 2.2e-09 M
CN1C(=O)[C@@H](NC(=O)c2cc(Oc3cccnc3)ccn2)COc2ccc3ncccc3c21 [RIP1-210] | 7.8e-09 M
CN1C(=O)[C@@H](NC(=O)c2ncn(Cc3ccccc3)n2)CSc2ccc3cnccc3c21 [RIP1-103] | 6.75e-09 M
CN1C(=O)[C@@H](NC(=O)c2cc(Oc3ccccc3)ccn2)COc2cc3[nH]ncc3cc21 [RIP1-190] | 1.44e-10 M
CN1C(=O)[C@@H](NC(=O)c2cn(Cc3ccccc3)nn2)COc2cc3[nH]ccc3cc21 [RIP1-115] | 3.48e-09 M
CN1C(=O)[C@@H](NC(=O)c2cn(Cc3ccccc3)cn2)CSc2cc3[nH]nc(Cl)c3cc21 [RIP1-028] | 7e-11 M
Cc1ccc(Cc2cc(C(=O)N[C@H]3CSc4cc5c(ccn5C)cc4N(C)C3=O)n(C)n2)cc1 [RIP1-057] | > 2e-06 M
COc1ncnc2cc3c(cc12)N(C)C(=O)[C@@H](NC(=O)c1n[nH]c(Cc2c(F)cc(F)cc2F)n1)CO3 [RIP1-157] | 2.49e-07 M
Cc1nc2cc3c(cc2[nH]1)OC[C@H](NC(=O)c1cnn(Cc2ccccc2)c1)C(=O)N3C [RIP1-062] | > 2e-06 M
CN1C(=O)[C@@H](NC(=O)c2cnn(Cc3ccccc3)c2)CSc2cc3[nH]ncc3cc21 [RIP1-014] | 2.6e-08 M
CN1C(=O)[C@@H](NC(=O)c2ccnc(Oc3ccccc3)c2)COc2ccc3ncccc3c21 [RIP1-195] | 5.66e-06 M
CN1C(=O)[C@@H](NC(=O)c2n[nH]c(Cc3ccc(F)cc3)n2)COc2cc3nccnc3cc21 [RIP1-207] | 4.88e-09 M
CN1C(=O)[C@@H](NC(=O)c2ncn(Cc3ccccc3)n2)CSc2cc3c(ccn3Cc3ccccc3)cc21 [RIP1-086] | > 2e-06 M
CN1C(=O)[C@@H](NC(=O)c2n[nH]c(Cc3cccc(F)c3)n2)COc2cc3nccnc3cc21 [RIP1-209] | 1.92e-09 M
CN1C(=O)[C@@H](NC(=O)c2cnc(Cc3ccccc3)[nH]2)CSc2cc3[nH]ccc3cc21 [RIP1-047] | 2.15e-08 M
Cc1ccc(Cc2cc(C(=O)N[C@H]3COc4cc5[nH]c(C)nc5cc4N(C)C3=O)nn2C)cc1 [RIP1-072] | 9.65e-08 M
CN1C(=O)[C@@H](NC(=O)c2cccc(Cc3ccccc3)c2)CSc2cc3c(ccn3C)cc21 [RIP1-011] | 3.24e-07 M
CN1C(=O)[C@@H](NC(=O)c2cc(Oc3cc(F)cc(F)c3)ccn2)COc2ccc3ncccc3c21 [RIP1-205] | 7.11e-09 M
CN1C(=O)[C@@H](NC(=O)c2cn(Cc3ccccc3)nn2)COc2cc3[nH]ncc3cc21 [RIP1-024] | 2.03e-09 M
CN1C(=O)[C@@H](NC(=O)c2cc(Cc3ccccc3)on2)CSc2cc3c(ccn3Cc3ccccc3)cc21 [RIP1-085] | > 2e-06 M
CN1C(=O)[C@@H](NC(=O)c2nnc(Cc3ccccc3)[nH]2)COc2cc3ocnc3cc21 [RIP1-218] | 1.24e-09 M

SMILES | IC50
CN1C(=O)[C@@H](NC(=O)c2cn(Cc3ccccc3)nn2)CSc2ccc3cnccc3c21 [RIP1-105] | 3.22e-09 M
CN1C(=O)[C@@H](NC(=O)c2cc(Oc3ccccc3)ccn2)COc2cc3ncnc(O)c3cc21 [RIP1-188] | 1.93e-07 M
CN1C(=O)[C@@H](NC(=O)c2cc(Oc3ccc(F)cc3)ccn2)COc2ccc3ncccc3c21 [RIP1-197] | 2.92e-08 M
CN1C(=O)[C@@H](NC(=O)c2n[nH]c(Cc3ccccc3F)n2)COc2ccc3cnccc3c21 [RIP1-163] | 1.3e-09 M
CN1C(=O)[C@@H](NC(=O)c2ccnc(Nc3ccccc3)n2)COc2ccc3ncccc3c21 [RIP1-202] | > 2e-05 M
CN1C(=O)[C@@H](NC(=O)c2cn(Cc3ccccc3)nn2)CSc2cc3[nH]ncc3cc21 [RIP1-019] | 6.8e-10 M
CN1C(=O)[C@@H](NC(=O)c2cn(Cc3ccccc3)cn2)CSc2cc3[nH]ccc3cc21 [RIP1-006] | 1.25e-09 M
CN1C(=O)[C@@H](NC(=O)c2cc(Cc3ccccc3)on2)COc2cc3[nH]ccc3cc21 [RIP1-116] | 5.16e-09 M
CN1C(=O)[C@@H](NC(=O)c2cncn2Cc2ccccc2)CSc2cc3[nH]ccc3cc21 [RIP1-005] | > 2e-06 M
CN1C(=O)[C@@H](NC(=O)c2cnn(Cc3ccccc3)c2)CSc2cc3c(ccn3Cc3ccccc3)cc21 [RIP1-083] | > 2e-06 M
CN1C(=O)[C@@H](NC(=O)c2cnn(Cc3ccccc3)c2)COc2cc3[nH]c(=O)[nH]c3cc21 [RIP1-074] | > 2e-06 M
CN1C(=O)[C@@H](NC(=O)c2cc(Oc3cccnc3)ccn2)COc2cc3nccnc3cc21 [RIP1-214] | 2.41e-08 M
CN1C(=O)[C@@H](NC(=O)c2n[nH]c(Cc3ccccc3)n2)COc2cc3ncnc(O)c3cc21 [RIP1-187] | 2.59e-07 M
COc1ncnc2cc3c(cc12)N(C)C(=O)[C@@H](NC(=O)c1n[nH]c(Cc2c(F)cccc2F)n1)CO3 [RIP1-156] | 2.8e-08 M
CN1C(=O)[C@@H](NC(=O)c2cc(Oc3ccccc3)ccn2)COc2ccc3ncccc3c21 [RIP1-179] | 6.7e-10 M
CN1C(=O)[C@@H](NC(=O)c2cc(Cc3ccccc3)on2)CSc2cc3occc3cc21 [RIP1-038] | 1.29e-10 M
CN1C(=O)[C@@H](NC(=O)c2cc(Cc3ccccc3)on2)COc2cc3[nH]c(C(F)(F)F)nc3cc21 [RIP1-077] | 1.68e-08 M
CN1C(=O)[C@@H](NC(=O)c2n[nH]c(Cc3c(F)cc(F)cc3F)n2)COc2cc3ncoc3cc21 [RIP1-184] | 3.76e-08 M
CN1C(=O)[C@@H](NC(=O)c2cncn2Cc2ccccc2)CSc2cc3c(ccn3C)cc21 [RIP1-054] | > 2e-06 M
CN1C(=O)[C@@H](NC(=O)c2n[nH]c(Cc3ccc(F)cc3)n2)COc2cc3[nH]nnc3cc21 [RIP1-167] | 1.6e-06 M
CN1C(=O)[C@H](NC(=O)c2nnc(Cc3ccccc3)o2)COc2cc3c(ccn3C)cc21 [RIP1-081] | > 2e-06 M
COc1ncnc2cc3c(cc12)N(C)C(=O)[C@@H](NC(=O)c1n[nH]c(Cc2ccc(F)cc2)n1)CO3 [RIP1-158] | 8e-09 M
CN1C(=O)[C@@H](NC(=O)c2cnn(Cc3ccccc3)c2)CSc2cc3c(ccn3C)cc21 [RIP1-010] | 9.6e-08 M
CN1C(=O)[C@@H](NC(=O)c2n[nH]c(Cc3ccc(F)cc3)n2)COc2ccc3ncccc3c21 [RIP1-171] | 1.4e-08 M

SMILES | IC50
CN1C(=O)[C@@H](NC(=O)c2cn(Cc3ccccc3)cn2)CSc2cc3c(ccn3Cc3ccccc3)cc21 [RIP1-088] | > 2e-06 M
CN1C(=O)[C@@H](NC(=O)c2n[nH]c(Cc3c(F)cc(F)cc3F)n2)COc2ccc3cnccc3c21 [RIP1-162] | 5.4e-08 M
CN1C(=O)[C@@H](NC(=O)c2cn(Cc3ccccc3)cn2)CSc2cc3occc3cc21 [RIP1-036] | 1.8e-10 M
CN1C(=O)[C@@H](NC(=O)c2cc(Oc3ccccc3)ccn2)COc2ccc3cnccc3c21 [RIP1-178] | 3.23e-10 M
Cc1nc2cc3c(cc2[nH]1)OC[C@H](NC(=O)c1nnn(Cc2ccccc2)n1)C(=O)N3C [RIP1-071] | 1.71e-08 M
CN1C(=O)[C@@H](NC(=O)c2nccc(Oc3ccccc3)n2)COc2cc3ncoc3cc21 [RIP1-213] | 7.68e-08 M
Cc1nc2cc3c(cc2[nH]1)OC[C@H](NC(=O)c1cccc(Cc2ccccc2)c1)C(=O)N3C [RIP1-066] | 6.7e-07 M
CN1C(=O)[C@@H](NC(=O)c2nnn(Cc3ccccc3)n2)COc2cc3[nH]c(=O)[nH]c3cc21 [RIP1-075] | 4.73e-10 M
CN1C(=O)[C@@H](NC(=O)c2ccc(Oc3ccccc3)cn2)COc2ccc3ncccc3c21 [RIP1-196] | > 2e-05 M
Cc1nc2cc3c(cc2[nH]1)OC[C@H](NC(=O)c1coc(Cc2ccccc2)n1)C(=O)N3C [RIP1-065] | > 2e-06 M
CN1C(=O)[C@@H](NC(=O)c2n[nH]c(Cc3cccc(F)c3)n2)COc2ccc3cnccc3c21 [RIP1-165] | 2.5e-09 M
CN1C(=O)[C@@H](NC(=O)c2cnnn2Cc2ccccc2)CSc2cc3c(ccn3C)cc21 [RIP1-052] | > 2e-06 M
CN1C(=O)[C@@H](NC(=O)c2nnn(Cc3ccccc3)n2)CSc2cc3c(ccn3C)cc21 [RIP1-058] | 2.53e-10 M
CN1C(=O)[C@@H](NC(=O)c2cc(Oc3cccc(F)c3)ccn2)COc2ccc3ncccc3c21 [RIP1-204] | 3.04e-09 M
CN1C(=O)[C@@H](NC(=O)c2n[nH]c(Cc3ccc(F)cc3)n2)COc2cc3ncoc3cc21 [RIP1-185] | 2.72e-09 M
CN1C(=O)[C@H](NC(=O)c2cc(Cc3ccccc3)on2)COc2cc3c(ccn3C)cc21 [RIP1-080] | > 2e-06 M
CN1C(=O)[C@@H](NC(=O)c2cc(Oc3ccccc3)ccn2)COc2cc3nccnc3cc21 [RIP1-177] | 2.03e-09 M
CN1C(=O)[C@@H](NC(=O)c2cccc(Cc3ccccc3)c2)CSc2cc3[nH]ccc3cc21 [RIP1-007] | 3.4e-07 M
CN1C(=O)[C@@H](NC(=O)c2n[nH]c(Cc3cccc(F)c3)n2)COc2ccc3ncccc3c21 [RIP1-172] | 5e-09 M
Cc1nc2cc3c(cc2[nH]1)OC[C@H](NC(=O)c1cn(Cc2ccccc2)nn1)C(=O)N3C [RIP1-063] | 4.57e-08 M
CN1C(=O)[C@@H](NC(=O)c2ccc(Nc3ccccc3)cn2)COc2ccc3ncccc3c21 [RIP1-201] | > 2e-05 M
CN1C(=O)[C@H](NC(=O)c2cnn(Cc3ccccc3)c2)COc2cc3c(ccn3C)cc21 [RIP1-082] | > 2e-06 M
